# PMC9313812, “The Pseudo‐Natural Product Rhonin Targets RHOGDI” (Angewandte Chemie (International Ed. in English), 2022)
# Entries after “also recorded” stand apart in the source; their conditions may differ. Like-named read-outs stand apart in the source and are kept apart here.
# Columns and labels:
# [1] = target: T1, RHOGDI1-mediated extraction of RAC1 (Homo sapiens, UniProt P52565); assay: Liposome sedimentation assay: displacement of prenylated GDP-bound RAC1 from liposomes by GST-RHOGDI1; format: biochemical; conditions: 50 μM compound
# T1 construct: made in house; host or cells: RHOGDI1: E. coli; prenylated RAC1: insect cells (TNAO38)
# T1 sequence (P52565 1-204): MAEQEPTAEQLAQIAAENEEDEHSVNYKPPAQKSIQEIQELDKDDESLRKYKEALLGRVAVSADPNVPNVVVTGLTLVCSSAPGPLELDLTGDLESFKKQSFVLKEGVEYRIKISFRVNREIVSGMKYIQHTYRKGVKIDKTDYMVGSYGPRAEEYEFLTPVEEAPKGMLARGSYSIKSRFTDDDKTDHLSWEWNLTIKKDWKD
# Protocol: Liposome sedimentation assay
# Liposomes were prepared by self-assembly of the lipids (500 μg) containing 20% (w/w) phosphatidylethanolamine, 45% (w/w) phosphatidylcholine, 20% (w/w) phosphatidylserine, 10% (w/w) cholesterol, and 5% (w/w) phosphatidylinositol 4,5-bisphosphate. Liposome assays were performed by mixing, sonicating (20 s with minimal power, 50% off and 50% on) and extruding ([…] filter) the lipids in 300 µl of a buffer, containing 20 mM HEPES-NaOH pH 7.4, 50 mM NaCl, 3 mM DTT, 5 mM MgCl2. 1 µM GerGer-RAC1-GDP was added to the liposomes and incubated for 20 min on ice. 1.5 µM GST‐RHOGDI-1 and the compounds or DMSO were added to the liposome-GerGer-RAC1-GDP complex prior to incubation on ice for 30 min. The samples were centrifuged at 20,000 x g for 30 min at 4 °C. The resulting pellet and supernatant fractions were collected and analyzed by immunoblotting. 10 µl of each sample were loaded on a SDS-PAGE gel for Western blotting. Specific antibodies were used to visualize RAC1, CDC42 and RHOA.
# 10 µM of GerGer-RAC1-GDP was added to liposomes suspended in flotation assay buffer containing 20 mM HEPES-NaOH pH 7.4, 50 mM M NaCl, 3 mM DTT, 5 mM MgCl2, and incubated for 20 min on ice. The liposomes were prepared by using self-assembling the lipids (500 μg lipids in 300 µl buffer), containing 15% (w/w) phosphatidylethanolamine, 0.5% (w/w) NBD-PE (N-(7-nitrobenz-2-oxa-1,3-diazol-4-yl)-1,2-dihexadecanoyl-sn-glycero-3-phosphoethanolamine, triethylammonium salt), 45% (w/w) phosphatidylcholine, 20% (w/w) phosphatidylserine, 10% (w/w)cholesterol, and 5% (w/w) phosphatidylinositol 4,5-bisphosphate. 15 µM of GST‐RHOGDI-1 and compounds or DMSO was added to liposome-GerGer-RAC1-GDP complex and samples were further incubated on ice for 30 min. The samples were added to 30% (w/v) sucrose solution. […]
# The resulting samples were centrifuged at 140000 x g for 1 h at 4 °C. The upper liposome‐ containing phase (detected by fluorescent NDB‐PE) was collected and analyzed by […]
# C3H/10T1/2 cells = assay: Osteoblast differentiation assay (ODA): purmorphamine-induced osteogenesis, alkaline phosphatase luminescence readout; format: cell-based, mouse; design: key to Osteogenesis IC50: Compounds are marked inactive when no inhibition was observed at the highest test concentration of 30 µM; conditions: for Inhibition of Hh-/purmorphamine-induced osteogenesis (in words): C3H/10T1/2 cells; for IC50: Mus musculus, C3H 10T1/2
# Protocol: Supplementary Table S7. Inhibition of osteogenesis assay. C3H10T1/2 cells were incubated with 1.5 µM purmorphamine and compounds or DMSO as a control for 96 h. The activity of alkaline phosphatase was assessed by means of a luminescence readout. Values for cells, which were treated with DMSO and purmorphamine, were set to 100% and data were measured in […]
# concentration of 30 µM. All data are mean values of three independent experiments (n = 3) ± […]
# Compound Osteogenesis IC50
# (1 picture or pasted object on this page, not shown here)
# NIH/3T3 cells were obtained from DSMZ, Germany (DSMZ ACC 59) and were cultured in DMEM (high glucose) supplemented with 10% heat-inactivated FCS, 2 mM L -glutamine and 1 mM sodium pyruvate. Shh -LIGHT2 cells (NIH/3T3 cells stably transfected with a Gli-responsive firefly luciferase reporter plasmid and a pRL-TK constituitive Renilla luciferase expression vector)[4] were cultured in the same culturing medium supplemented with 400 μg ml −1 G418 and 150 μg ml −1 Zeocin as selecting agents. The murine osteoblasts C3H/10T1/2 (ATCC CCL-226) were obtained from ATCC, USA and were cultured in DMEM (high glucose) supplemented with 10% heat-inactivated FCS, 6 mM L -glutamine, 1 mM sodium pyruvate. HEK293T cells (ATCC, England) were grown in DMEM containing 10% FBS, 100 U ml −1 penicillin and 0.1 mg ml −1 streptomycin. All cell lines were maintained at 37 °C and 5% CO 2 in a humidified atmosphere. All the cell lines were regularly assayed for mycoplasma and were confirmed to be mycoplasma-free. Transfection of DNA constructs and siRNAs were performed using FuGENE HD (Promega), Lipofectamine® LTX (Invitrogen) and DharmaFECT™ (GE Healthcare) transfection reagent according to the manufacturer’s […]
# Osteoblast differentiation assay
# The osteoblast differentiation assay was performed by the Compound Management and Screening Center (COMAS) in Dortmund, Germany. C3H/10T1/2 cells were seeded (800 per well) in white 384-well plates or (6000 per well) in 96-well plates. After incubation for 16 h, compounds or DMSO were added to the cells using the acoustic nanoliter dispenser ECHO 520 (Labcyte) and osteogenesis was induced with 1.5 µM purmorphamine. Plates were incubated for 96 h at 37 °C and 5% CO2. Alkaline phosphatase activity was measured by replacing the medium with osteogenesis-lysis buffer (lysis buffer: 100 mM Tris pH 9.5, 250 mM NaCl, 25 mM MgCl2, 1% Triton X-100, sterile filtered) containing 1:100 chemiluminescent substrate CDP-Star® (Promega, 384-well plates: 35 µL, 96-well plates: 50 µL) for one hour in the dark at 25 °C. In 384-well plates, the luminescence was monitored using the Paradigm plate reader (Molecular Devices, USA), whereas Spark plate reader (Tecan, Austria) was used to measure luminescence in 96-well plates. Dose-response analyses were performed for all hit compounds […]
# using a three-fold dilution series starting from a concentration of 30 μM. Half-maximal inhibitory concentrations (IC50) were calculated using the Quattro software suite (Quattro Research, Planegg, Germany) or GraphPad Prism 7 (GraphPad, USA).
# The effect of test compounds on the viability of C3H/10T1/2 cells was determined by CellTiter-Glo Luminescence cell viability assay (Promega). Cells were treated as described for the osteogenesis assay prior to addition of the CellTiter-Glo® reagent according to manufacturer’s protocol. Compounds causing at least a 50% reduction in the osteogenesis assay and retaining cell viability of at least 80% were considered as hits. Dose-response analyses were performed for all hit compounds using a three-fold dilution series starting from a concentration of 30 μM. Half-maximal inhibitory concentrations (IC50) were calculated using the Quattro software suite (Quattro Research GmbH). […]
# [2] = Table S9, purmorphamine-induced, mean, n=3 ± SD, read-out: ODA IC50 ± SD
Compound,Inhibition of RHOGDI1-mediated extraction of RAC1 from liposomes (in words) [1],Inhibition of Hh-/purmorphamine-induced osteogenesis (in words) (C3H/10T1/2 cells),"Osteogenesis IC50 (C3H/10T1/2 cells; Table S7, 1.5 µM purmorphamine, 96 h, mean ± SD, n=3, highest test concentration 30 µM)",IC50 (C3H/10T1/2 cells; [2]) [µM],"IC50 (C3H/10T1/2 cells; Table S7, 1.5 µM purmorphamine, 96 h, mean ± SD, n=3, highest test concentration 30 µM, read-out: Osteogenesis IC50) [µM]"
COC(=O)C1(CCC(=O)c2ccc(F)cc2)N=C(c2ccc(Br)cc2)C2C(=O)N(C)C(=O)C21 (stereo not drawn) [7d],did not inhibit extraction of RAC1,abolished activity; also recorded: did not inhibit osteogenesis,inactive,,
COC(=O)C1(C(CC(=O)c2cccnc2)c2ccccc2)N=C(c2ccc(Br)cc2)C2C(=O)N(C)C(=O)C21 (stereo not drawn) [7l],inhibited,most potently inhibited,,1.52 ± 0.22,
COC(=O)C1(C(CC(=O)c2ccccc2)c2ccccc2)N=C(c2ccc(Br)cc2)C2C(=O)N(C)C(=O)C21 (stereo not drawn) [7a],inhibits the extraction of RAC1,,,1.3 ± 0.3,1.5 ± 0.2
